In article PMC5404377 (Bioorganic & medicinal chemistry letters, 2016):

Key:
hMOR = hMOR (Homo sapiens, UniProt P35372); settings: read-out: Ki (nM) MOR; literature value; ref [14]; cited from earlier work
hKOR = hKOR (Homo sapiens, UniProt P41145); settings: read-out: Ki (nM) KOR; literature value; ref [14]; cited from earlier work
Male Swiss-Webster mice [1] = experiment: Hot plate nociception test; assay type: in vivo; settings: mouse
Male Swiss-Webster mice [2] = experiment: Tail-flick nociceptive test; assay type: in vivo; settings: mouse
DOR = DOR (Rattus norvegicus, UniProt P33533); experiment: [35S]GTPγS assay, agonist efficacy at DOR; assay type: biochemical; settings: for agonist activity at DOR: [35S]GTPγS
MOR = MOR (Rattus norvegicus, UniProt P33535); experiment: [35S]GTPγS assay, agonist efficacy at MOR; assay type: biochemical; settings: for MOR functional profile: [35S]GTPγS; for Emax: read-out: MOR %Emax
Chain of MOR (P33535 whole entry): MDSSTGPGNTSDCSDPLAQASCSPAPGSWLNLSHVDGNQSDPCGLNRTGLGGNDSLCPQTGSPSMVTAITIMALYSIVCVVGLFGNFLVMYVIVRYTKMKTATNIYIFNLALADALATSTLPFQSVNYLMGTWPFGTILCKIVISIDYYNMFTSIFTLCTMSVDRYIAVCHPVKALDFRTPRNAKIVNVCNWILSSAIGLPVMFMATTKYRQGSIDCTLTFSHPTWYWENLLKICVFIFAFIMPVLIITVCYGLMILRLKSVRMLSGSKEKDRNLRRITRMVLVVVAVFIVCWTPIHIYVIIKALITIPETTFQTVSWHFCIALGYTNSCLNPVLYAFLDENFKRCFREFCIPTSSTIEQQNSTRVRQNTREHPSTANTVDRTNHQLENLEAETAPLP

Chain of DOR (P33533 whole entry): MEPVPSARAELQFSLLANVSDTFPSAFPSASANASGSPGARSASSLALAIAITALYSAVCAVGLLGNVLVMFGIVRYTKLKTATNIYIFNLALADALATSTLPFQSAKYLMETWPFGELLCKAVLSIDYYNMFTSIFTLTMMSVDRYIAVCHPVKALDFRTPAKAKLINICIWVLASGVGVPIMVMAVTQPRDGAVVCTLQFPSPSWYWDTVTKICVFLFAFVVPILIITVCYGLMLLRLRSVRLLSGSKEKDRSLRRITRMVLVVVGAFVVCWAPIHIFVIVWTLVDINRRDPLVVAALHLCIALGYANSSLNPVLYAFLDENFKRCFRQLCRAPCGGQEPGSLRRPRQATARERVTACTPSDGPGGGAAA
Chain of hMOR (P35372 whole entry): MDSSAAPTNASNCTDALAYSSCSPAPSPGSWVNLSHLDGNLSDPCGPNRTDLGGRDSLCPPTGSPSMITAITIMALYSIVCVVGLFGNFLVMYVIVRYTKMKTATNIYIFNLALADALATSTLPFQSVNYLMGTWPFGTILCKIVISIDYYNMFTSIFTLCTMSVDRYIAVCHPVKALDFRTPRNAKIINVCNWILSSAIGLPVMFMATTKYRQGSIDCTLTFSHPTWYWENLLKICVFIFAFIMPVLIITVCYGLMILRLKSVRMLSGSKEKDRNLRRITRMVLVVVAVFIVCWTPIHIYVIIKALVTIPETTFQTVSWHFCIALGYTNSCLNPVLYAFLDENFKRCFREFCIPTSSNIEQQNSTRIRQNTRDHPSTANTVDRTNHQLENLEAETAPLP
Chain of hKOR (P41145 whole entry): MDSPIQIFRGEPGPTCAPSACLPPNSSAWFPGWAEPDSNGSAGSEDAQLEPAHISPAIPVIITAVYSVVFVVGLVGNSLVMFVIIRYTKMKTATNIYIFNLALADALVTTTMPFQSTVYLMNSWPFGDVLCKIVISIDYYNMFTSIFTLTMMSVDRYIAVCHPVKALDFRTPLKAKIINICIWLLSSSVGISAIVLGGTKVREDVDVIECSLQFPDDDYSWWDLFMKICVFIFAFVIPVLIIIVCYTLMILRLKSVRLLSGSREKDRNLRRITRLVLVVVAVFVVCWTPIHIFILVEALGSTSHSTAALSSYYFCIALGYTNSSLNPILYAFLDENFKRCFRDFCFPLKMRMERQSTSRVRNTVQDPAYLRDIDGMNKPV

## O=C1/C(=C/c2ccccc2)C[C@@]2(O)[C@H]3Cc4ccc(O)c5c4[C@@]2(CCN3CC2CC2)[C@H]1O5 [BNTX, benzylidenenaltrexone]
hMOR
  Ki: 26 nM
hKOR
  Ki: 48 nM

## CN1CC[C@]23c4c5ccc(O)c4O[C@H]2C(=O)/C(=C/c2ccccc2)C[C@@]3(O)[C@H]1C5 [Compound 6, 7-benzylideneoxymorphone]
Male Swiss-Webster mice [1]; 50 mg/kg s.c., at 30 min (p<0.05)
  hot plate antinociception compared to saline control: significantly greater antinociception
Male Swiss-Webster mice [1]; 60 mg/kg s.c., at 30 (p<0.01), 50 (p<0.001), 70 (p<0.05) min
  hot plate antinociception compared to saline control: significantly greater antinociception
Male Swiss-Webster mice [1]; s.c., increasing doses 20-60 mg/kg
  Emax, hot plate antinociception: approximately 40 % MPE
Male Swiss-Webster mice [2]; 50 mg/kg s.c., at 70 min (p<0.01)
  tail-flick antinociception compared to saline control: significantly greater antinociception
Male Swiss-Webster mice [2]; 60 mg/kg s.c., at 30 (p<0.001), 50 (p<0.01), 70 (p<0.01) min
  tail-flick antinociception compared to saline control: significantly greater antinociception
Male Swiss-Webster mice [2]; 60 mg/kg s.c., post-administration
  time of peak antinociception effects, tail-flick: 30 min
DOR
  agonist activity at DOR: no significant agonist activity
MOR
  EC50: 72 ± 11 nM
  MOR functional profile: partial agonists
  Emax: 39 ± 1.3%

## O=C1/C(=C/c2ccccc2)C[C@@]2(O)[C@H]3Cc4ccc(O)c5c4[C@@]2(CCN3CCc2ccccc2)[C@H]1O5 [Compound 7]
DOR
  agonist activity at DOR: no significant agonist activity
DOR; read-out: DOR %Emax
  Emax: < 10%
MOR
  MOR functional profile: partial agonists
  Emax: 52 ± 3.8%

## O=C1/C(=C/c2ccccc2)C[C@@]2(O)[C@H]3Cc4ccc(O)c5c4[C@@]2(CCN3CCCc2ccccc2)[C@H]1O5 [Compound 8]
MOR
  Emax: < 10%
